This passage reports EC50 results from US20250197376A1, “PYRAZINE AMIDE DERIVATIVES” (Novartis AG, priority 2022, published 2025).

The test deals with 3D7 P. falciparum strain. As to the kind of experiment: P. falciparum 3D7 parasite proliferation assay (SYBR Green). It counts as cell-based. The following applies: Plasmodium falciparum, Erythrocyte; 3D7 P. falciparum infected human erythrocytes, 72 hours, SYBR Green fluorescence; read-out: Pf3D7 Activity. How it is done:
The following assay illustrates the invention without in any way limiting the scope of the invention. This parasite proliferation assay measures the increase in parasite DNA content using a DNA intercalating dye, SYBR Green®. 3D7 P. falciparum strain is grown in complete culturing media until parasitemia reaches 3% to 8% with O+ human erythrocytes. 20 μl of screening media is dispensed into 384 well assay plates. 50 nl of compounds of the invention (in DMSO), including antimalarial controls (mefloquine, pyrimethamine and artemisinin), are then transferred into the assay plates, as well as DMSO alone to serve as a negative control for inhibition. Then 30 μl of a suspension of a 3D7 P. falciparum infected erythrocytes in screening media is dispensed into the assay plates such that the final hematocrit is 2.5% with a final parasitemia of 0.3%. The plates are placed in a 37° C. incubator for 72 hours in a low oxygen environment containing 93% N2, 4% CO2, and 3% O2 gas mixture. 10 μl of lysis buffer (saponin, triton-X, EDTA) containing a 10× solution of SYBR Green […] in RPMI media is dispensed into the plates. The plates are lidded and kept at room temperature overnight for the lysis of the infected red blood cells. The fluorescence intensity is measured (excitation […], emission 530 nm) using the Envision™ system (Perkin Elmer). The percentage inhibition of 50%, EC50, is calculated for each compound.

pEC50: −log10 of the molar value. A value given as a limit tells only on which side of the number the result lay.

As for `CC(C)(N)CNC(=O)c1cncc(-c2[nH]c3ccccc3c2C(F)(F)F)n1` [Example 54, N-(2-amino-2-methylpropyl)-6-(3-(trifluoromethyl)-1H-indol-2-yl)pyrazine-2-carboxamide], the pEC50 was below 7.00.
The figure for `Cc1c(-c2cncc(C(=O)NCC3(N)CCC3)n2)[nH]c2ccc(OC(F)(F)F)cc12` [Example 58, N-((1-aminocyclobutyl)methyl)-6-(3-methyl-5-(trifluoromethoxy)-1H-indol-2-yl)pyrazine-2-carboxamide] is above 8.00; for `CC(C)(N)CNC(=O)c1cncc(-c2cc3cnc(Cl)cc3[nH]2)n1` [Example 40, N-(2-amino-2-methylpropyl)-6-(6-chloro-1H-pyrrolo[3,2-c]pyridin-2-yl)pyrazine-2-carboxamide] it is below 7.00.
To `Cc1c(-c2cncc(C(=O)NCC(C)(C)N)n2)[nH]c2cc(OC(F)F)ccc12` [Example 69, N-(2-Amino-2-methylpropyl)-6-(6-(difluoromethoxy)-3-methyl-1H-indol-2-yl)pyrazine-2-carboxamide] belongs 7.00 to 8.00.
To `Cc1c(-c2cncc(C(=O)N[C@H]3CC[C@H](N)CC3)n2)[nH]c2ccccc12` [Example 97, N-((1r,4r)-4-aminocyclohexyl)-6-(3-methyl-1H-indol-2-yl)pyrazine-2-carboxamide] belongs below 7.00.
Take `CC(C)(N)CNC(=O)c1cncc(-c2cc3cc(F)c(Cl)nc3[nH]2)n1` [Example 33, N-(2-amino-2-methylpropyl)-6-(6-chloro-5-fluoro-1H-pyrrolo[2,3-b]pyridin-2-yl)pyrazine-2-carboxamide]: the pEC50 is below 7.00.
To `Cc1c(-c2cncc(C(=O)NCCCN)n2)[nH]c2ccccc12` [Example 90, N-(3-aminopropyl)-6-(3-methyl-1H-indol-2-yl)pyrazine-2-carboxamide] belongs below 7.00; to `Cc1c(-c2cncc(C(=O)NC34CC(N)(C3)C4)n2)[nH]c2ccccc12` [Example 87, N-(3-aminobicyclo[1.1.1]pentan-1-yl)-6-(3-methyl-1H-indol-2-yl)pyrazine-2-carboxamide], 7.00 to 8.00; to `CCOC(=O)c1cc2[nH]c(-c3cncc(C(=O)NCC(C)(C)N)n3)cc2s1` [Example 53, Ethyl 5-(6-((2-amino-2-methylpropyl)carbamoyl)pyrazin-2-yl)-4H-thieno[3,2-b]pyrrole-2-carboxylate], 7.00 to 8.00.
To `Cc1c(-c2cncc(C(=O)NCC(C)(C)N)n2)[nH]c2ccc(CN)cc12` [Example 71, N-(2-amino-2-methylpropyl)-6-(5-(aminomethyl)-3-methyl-1H-indol-2-yl)pyrazine-2-carboxamide] belongs below 7.00; to `Cc1c(-c2cncc(C(=O)NCC(C)(C)C)n2)[nH]c2ccccc12` [Example 68, 6-(3-methyl-1H-indol-2-yl)-N-neopentylpyrazine-2-carboxamide], below 7.00.
The figure for `CC(C)(N)CNC(=O)c1cncc(-c2cc3ccc(Cl)c(F)c3[nH]2)n1` [Example 11, N-(2-amino-2-methylpropyl)-6-(6-chloro-7-fluoro-1H-indol-2-yl)pyrazine-2-carboxamide] is 7.00 to 8.00; for `COC(=O)c1ccc2[nH]c(-c3cncc(C(=O)NCC(C)(C)N)n3)c(C)c2c1` [Example 48, Methyl 2-(6-((2-amino-2-methylpropyl)carbamoyl)pyrazin-2-yl)-3-methyl-1H-indole-5-carboxylate] it is 7.00 to 8.00.
Turning to `Cc1c(-c2cncc(C(=O)NC3CCNCC3)n2)[nH]c2ccccc12` [Example 93, 6-(3-methyl-1H-indol-2-yl)-N-(piperidin-4-yl)pyrazine-2-carboxamide], the pEC50 is below 7.00.
To `CC(C)(N)CNC(=O)c1cncc(-c2cc3ccc(OC(F)(F)F)cc3[nH]2)n1` [Example 47, N-(2-amino-2-methylpropyl)-6-(6-(trifluoromethoxy)-1H-indol-2-yl)pyrazine-2-carboxamide] belongs 7.00 to 8.00; to `COc1cccc2[nH]c(-c3cncc(C(=O)NCC(C)(C)N)n3)cc12` [Example 30, N-(2-amino-2-methylpropyl)-6-(4-methoxy-1H-indol-2-yl)pyrazine-2-carboxamide], below 7.00.
The figure for `Cc1c(-c2cncc(C(=O)NCC3(N)CCOCC3)n2)[nH]c2ccc(OC(F)(F)F)cc12` [Example 61, N-((4-aminotetrahydro-2H-pyran-4-yl)methyl)-6-(3-methyl-5-(trifluoromethoxy)-1H-indol-2-yl)pyrazine-2-carboxamide] is 7.00 to 8.00; for `Cc1c(-c2cncc(C(=O)N[C@@H]3CCCC[C@H]3N)n2)[nH]c2ccccc12` (racemic) [Example 101, (rac)-N-((1r,2r)-2-aminocyclohexyl)-6-(3-methyl-1H-indol-2-yl)pyrazine-2-carboxamide] it is below 7.00.
Consider `CC(C)(N)CNC(=O)c1cncc(-c2cc3cccc(F)c3[nH]2)n1` [Example 25, N-(2-amino-2-methylpropyl)-6-(7-fluoro-1H-indol-2-yl)pyrazine-2-carboxamide], for which the pEC50 is 7.00 to 8.00.
The figure for `Cc1c(-c2cncc(C(=O)NCC(C)(C)N)n2)[nH]c2cc(OC(F)(F)F)ccc12` [Example 8, N-(2-amino-2-methylpropyl)-6-(3-methyl-6-(trifluoromethoxy)-1H-indol-2-yl)pyrazine-2-carboxamide] is above 8.00.
`COC(=O)c1ccc2cc(-c3cncc(C(=O)NCC(C)(C)N)n3)[nH]c2c1` [Example 29, Methyl 2-(6-((2-amino-2-methylpropyl)carbamoyl)pyrazin-2-yl)-1H-indole-6-carboxylate]: the pEC50 was 7.00 to 8.00.
With `CN(C)C(=O)c1cc2[nH]c(-c3cncc(C(=O)NCC(C)(C)N)n3)cc2s1` [Example 109, 5-(6-((2-amino-2-methylpropyl)carbamoyl)pyrazin-2-yl)-N,N-dimethyl-4H-thieno[3,2-b]pyrrole-2-carboxamide], the pEC50 is below 7.00.
The figure for `Cc1c(-c2cncc(C(=O)N[C@H]3CC[C@H](N)CC3)n2)[nH]c2ccc(OC(F)(F)F)cc12` [Example 65, N-((1r,4r)-4-aminocyclohexyl)-6-(3-methyl-5-(trifluoromethoxy)-1H-indol-2-yl)pyrazine-2-carboxamide] is 7.00 to 8.00; for `CC(C)(N)CNC(=O)c1cncc(-c2cc3cc(F)c(O)cc3[nH]2)n1` [Example 110, N-(2-amino-2-methylpropyl)-6-(5-fluoro-6-hydroxy-1H-indol-2-yl)pyrazine-2-carboxamide] it is below 7.00.
The figure for `CC(C)c1c(-c2cncc(C(=O)NCC(C)(C)N)n2)[nH]c2ccccc12` [Example 52, N-(2-amino-2-methylpropyl)-6-(3-isopropyl-1H-indol-2-yl)pyrazine-2-carboxamide] is 7.00 to 8.00; for `CC(C)(N)CNC(=O)c1cncc(-c2cc3cc(F)cc(F)c3[nH]2)n1` [Example 24, N-(2-amino-2-methylpropyl)-6-(5,7-difluoro-1H-indol-2-yl)pyrazine-2-carboxamide] it is 7.00 to 8.00; for `Cc1c(-c2cncc(C(=O)NCC3(N)CCC3)n2)[nH]c2ccccc12` [Example 84, N-((1-aminocyclobutyl)methyl)-6-(3-methyl-1H-indol-2-yl)pyrazine-2-carboxamide] it is 7.00 to 8.00.
The figure for `CC(C)(N)CNC(=O)c1cncc(-c2[nH]c3ccccc3c2C#N)n1` [Example 57, N-(2-amino-2-methylpropyl)-6-(3-cyano-1H-indol-2-yl)pyrazine-2-carboxamide] is below 7.00; for `CC(C)(N)CNC(=O)c1cncc(-c2cc3cc(OC(F)(F)F)ccc3[nH]2)n1` [Example 2, N-(2-Amino-2-methylpropyl)-6-(5-(trifluoromethoxy)-1H-indol-2-yl)pyrazine-2-carboxamide] it is 7.00 to 8.00.
`Cc1c(-c2cncc(C(=O)NCCN)n2)[nH]c2ccccc12` [Example 86, N-(2-aminoethyl)-6-(3-methyl-1H-indol-2-yl)pyrazine-2-carboxamide]: the pEC50 was 7.00 to 8.00.
For the compound `CC(C)(N)CNC(=O)c1cncc(-c2cc3cc(Cl)nc(Cl)c3[nH]2)n1` [Example 38, N-(2-amino-2-methylpropyl)-6-(5,7-dichloro-1H-pyrrolo[2,3-c]pyridin-2-yl)pyrazine-2-carboxamide], the pEC50 was below 7.00.
To `Cc1c(-c2cncc(C(=O)NCC(C)(C)N)n2)[nH]c2c(F)c(Cl)ccc12` [Example 4, N-(2-amino-2-methylpropyl)-6-(6-chloro-7-fluoro-3-methyl-1H-indol-2-yl)pyrazine-2-carboxamide] belongs above 8.00; to `Cc1c(-c2cncc(C(=O)NCC(C)(C)N)n2)[nH]c2c1CCC(C)(C)C2` [Example 76, N-(2-Amino-2-methylpropyl)-6-(3,6,6-trimethyl-4,5,6,7-tetrahydro-1H-indol-2-yl)pyrazine-2-carboxamide], 7.00 to 8.00; to `Cc1c(-c2cncc(C(=O)NC3CNC3)n2)[nH]c2ccccc12` [Example 91, N-(azetidin-3-yl)-6-(3-methyl-1H-indol-2-yl)pyrazine-2-carboxamide], below 7.00.
In the case of `Cc1c(-c2cncc(C(=O)NC(C)(C)CN)n2)[nH]c2ccccc12` [Example 88, N-(1-amino-2-methylpropan-2-yl)-6-(3-methyl-1H-indol-2-yl)pyrazine-2-carboxamide], the pEC50 is 7.00 to 8.00.
